Patent US20080009485A1, “Methods for the use of inhibitors of cytosolic phospholipase A2 in the treatment of thrombosis” (Wyeth, priority 2006, published 2008)

How the values were obtained:
cPLA2 = target: T1, cPLA2 (Homo sapiens, UniProt P47712); assay: Coumarin assay (hydrolysis of 7-hydroxycoumarinyl 6-heptenoate); format: biochemical; details: 60 μM 7-hydroxycoumarinyl 6-heptenoate, 4 μg cPLA2, pH 7.5
T1 sequence (P47712 1-749): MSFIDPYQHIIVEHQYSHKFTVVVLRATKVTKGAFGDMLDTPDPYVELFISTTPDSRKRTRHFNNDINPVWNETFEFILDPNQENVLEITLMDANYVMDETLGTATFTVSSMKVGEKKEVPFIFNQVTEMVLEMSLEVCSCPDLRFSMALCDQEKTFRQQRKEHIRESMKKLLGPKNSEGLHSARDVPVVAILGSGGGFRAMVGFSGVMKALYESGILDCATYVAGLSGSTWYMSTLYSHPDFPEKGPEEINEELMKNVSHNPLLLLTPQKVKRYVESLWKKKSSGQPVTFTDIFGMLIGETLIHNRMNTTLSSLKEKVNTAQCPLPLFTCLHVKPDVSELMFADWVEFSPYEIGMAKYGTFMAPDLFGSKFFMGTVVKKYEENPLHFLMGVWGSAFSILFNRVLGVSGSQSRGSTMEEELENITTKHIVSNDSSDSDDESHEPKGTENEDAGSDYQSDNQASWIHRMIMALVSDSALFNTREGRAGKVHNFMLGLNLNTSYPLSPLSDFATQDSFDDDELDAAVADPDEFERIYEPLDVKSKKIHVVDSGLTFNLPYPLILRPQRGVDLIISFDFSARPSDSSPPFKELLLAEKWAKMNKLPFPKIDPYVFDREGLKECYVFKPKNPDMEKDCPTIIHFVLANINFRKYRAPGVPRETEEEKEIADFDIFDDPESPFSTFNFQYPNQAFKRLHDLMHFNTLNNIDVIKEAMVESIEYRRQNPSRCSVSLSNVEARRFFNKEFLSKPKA
Protocol: Inhibitors were mixed with 200 μL assay buffer (80 mM Hepes, pH 7.5, 1 mM EDTA) containing 60 μM 7-hydroxycoumarinyl 6-heptenoate. The reaction was initiated by adding 4 μg cPLA2 in 50 μL assay buffer. Hydrolysis of the 7-hydroxycounarimyl 6-heptenoate ester was monitored in a fluorometer by exciting at 360 nm and monitoring emission at 460 nm. Enzyme activity is proportional to the increase in emission at 460 nm per minute. In the presence of a cPLA2 inhibitor, the rate of increase is less.

[1] = test system: Human platelet aggregation; assay: Platelet Function Analyzer (PFA-100) study, whole human blood in vitro; format: cell-based; details: for prolongation of PFA-100 closure time: Collagen/Epinephrine cartridges, 10 minutes incubation, DMSO vehicle 125±13.9 seconds
Protocol: Platelet Function Analyzer (PFA-100®) Study
Human platelet aggregation was also studied using the platelet function analyzer (PFA-100®). […] Tubes were inverted 5 times and the blood was transferred to 15 ml polypropylene conical tubes. […] The manufacturers protocol was followed for the PFA-100 using Collagen/Epinephrine cartridges (0.5% DMSO alone in whole blood gave closure times of 125±13.9 seconds). Maximum closure time is 300 seconds, as set by the manufacturer. […] The blood from two mice was pooled to obtain enough blood (800 μl minimum) to conduct each assay.

[2] = Exposure after chow dosing in mice; details: mouse, in vivo, oral; ApoE knockout mice, chow diet supplemented at 3.3 mg/g chow
platelet aggregation = assay: PFA-100 ex vivo platelet aggregation of chow dosed mice; format: in vivo; details: ApoE knockout mice, 3.3 mg/g chow for 2 days; control 142±16, p<0.02

Molecule	IC50 (cPLA2)	further results
O=C(O)CCc1ccc(S(=O)(=O)CCc2c(CCNS(=O)(=O)Cc3ccccc3Cl)n(C(c3ccccc3)c3ccccc3)c3ccc(Cl)cc23)cc1 [Example 129, 3-[4-({2-[1-Benzhydryl-5-chloro-2-(2-{[(2-chloro-benzyl)sulfonyl]amino}ethyl)-1H-indol-3-yl]ethyl}sulfonyl)phenyl]propanoic acid]	0.13 µM	
O=C(O)c1ccc(OCCc2c(CCNS(=O)(=O)Cc3ccc(Cl)c(Cl)c3)n(C(c3ccccc3)c3ccccc3)c3ccc(Cl)cc23)cc1F [Example 296, 4-{2-[1-benzhydryl-5-chloro-2-(2-{[(3,4-dichlorobenzyl)sulfonyl]amino}ethyl)-1H-indol-3-yl]ethoxy}-2-fluorobenzoic acid]		melting point: 117 to 119 °C
CC(=O)Oc1ccccc1C(=O)O [aspirin, reference compound]		prolongation of PFA-100 closure time [1]: able to prolong the closure time to varying extents
4-{2-[1-benzhydryl-5-chloro-2-(2-{[(2,6-dimethylbenzyl)sulfonyl]amino}ethyl)-1H-indol-3-yl]ethoxy}benzoic acid [Example 279]	0.16 µM	
O=C(O)c1ccc(OCCc2c(CCNS(=O)(=O)CCN3CC4CC3CO4)n(C(c3ccccc3)c3ccccc3)c3ccc(Cl)cc23)cc1 (stereo not shown) [Example 251, 4-(2-{1-benzhydryl-5-chloro-2-[2-({[2-(2-oxa-5-azabicyclo[2.2.1]hept-5-yl)ethyl]sulfonyl}amino)ethyl]-1H-indol-3-yl}ethoxy)benzoic acid]	1.5 µM	
Cc1cccc(C)c1CS(=O)(=O)NCCc1c(CCCc2ccc(C(=O)O)cc2)c2cc(Cl)ccc2n1C(c1ccccc1)c1ccccc1 [Example 52, 4-(3-[1-benzhydryl-5-chloro-2-(2-{[(2,6-dimethylbenzyl)-sulfonyl]amino}ethyl)-1H-indol-3-yl]propyl}benzoic acid]		prolongation of PFA-100 closure time [1]: able to prolong the closure time to varying extents; relative potency in PFA-100 closure time ([1]; compared: Examples 44, 52 and aspirin): most potent compound
2-{2-[1-Benzhydryl-5-chloro-2-(2-phenylmethanesulfonyl-amino-ethyl)-1H-indol-3-yl]-ethoxy}-benzoic acid [Example 283]	0.5 µM	
O=C(O)c1ccc(OCCc2c(CCNS(=O)(=O)Cc3ccccc3Cl)n(C(c3ccccc3)c3ccccc3)c3ccc(Cl)cc23)cc1F [Example 297, 4-{2-[1-benzhydryl-5-chloro-2-(2-{[(2-chlorobenzyl)sulfonyl]amino}ethyl)-1H-indol-3-yl]ethoxy}-2-fluorobenzoic acid]		melting point: 132 to 135 °C
CC(C)(Cc1ccc(S(=O)(=O)CCc2c(CCNS(=O)(=O)Cc3ccc(Cl)c(Cl)c3)n(C(c3ccccc3)c3ccccc3)c3ccc(Cl)cc23)cc1)C(=O)O [Example 298, 3-[4-({2-[1-benzhydryl-5-chloro-2-(2-{[(3,4-dichlorobenzyl)sulfonyl]amino}ethyl)-1H-indol-3-yl]ethyl}sulfonyl)phenyl]-2,2-dimethylpropanoic acid]		melting point: 207 to 208 °C
O=C(O)c1ccc(OCCc2c(CCNS(=O)(=O)Cc3cnc(Cl)c(Cl)c3)n(C(c3ccccc3)c3ccccc3)c3ccc(Cl)cc23)cc1 [Example 76]	0.4 µM	
O=C(O)c1ccc(OCCc2c(CCNS(=O)(=O)Cc3c(Cl)cccc3Cl)n(C(c3ccccc3)c3ccccc3)c3ccc(Cl)cc23)cc1 [Example 73, 4-{2-[1-Benzhydryl-5-chloro-2-(2-{[(2-dichlorobenzyl)sulfonyl]amino}ethyl)-1H-indol-3-yl]ethoxy}benzoic acid]	0.3 µM	
O=C(O)c1ccc(CCCc2c(CCNS(=O)(=O)Cc3ccc(Cl)c(Cl)c3)n(C(c3ccccc3)c3ccccc3)c3ccc(Cl)cc23)cc1 [Example 44, 4-{3-[1-benzhydryl-5-chloro-2-(2-{[(3,4-dichlorobenzyl)sulfonyl]amino}ethyl)-1H-indol-3-yl]propyl}benzoic acid]		Cmax [2]: ~0.5 µg/mL; closure time of the PFA-100, ex vivo (platelet aggregation): 194 ± 49 s
4-[2-(1-benzhydryl-5-chloro-2-{2-[({2-[(3R,5S)-3,5-dimethylmorpholin-4-yl]ethyl}sulfonyl)amino]ethyl}-1H-indol-3-yl)ethoxy]benzoic acid [Example 250]	2.1 µM	
NCc1ccccc1S(=O)(=O)NCCc1c(CCCc2ccc(C(=O)O)cc2)c2cc(Cl)ccc2n1C(c1ccccc1)c1ccccc1 [Example 156, 4-(3-{2-[2-({[2-(aminomethyl)phenyl]sulfonyl}amino)ethyl]-1-benzhydryl-5-chloro-1H-indol-3-yl}propyl)benzoic acid]	0.16 µM	
